Assay results as given in US8304446B2, “Compounds” (Glaxo Group Limited, priority 2009, dated 2012).
Structures can show the parent of a compound that is named as a salt.

Tests used:
CCR4 = molecular target: T1, CCR4 (Homo sapiens, UniProt P51679); assay: [35S]-GTPγS SPA binding assay for CCR4 antagonist activity; type: biochemical; conditions: CCR4 expressing CHO membranes; human MDC at EC80; [35S]-GTPγS competition
T1 construct: expressed in transfected cells; host or cells: CHO cell membranes
T1 sequence (P51679 1-360): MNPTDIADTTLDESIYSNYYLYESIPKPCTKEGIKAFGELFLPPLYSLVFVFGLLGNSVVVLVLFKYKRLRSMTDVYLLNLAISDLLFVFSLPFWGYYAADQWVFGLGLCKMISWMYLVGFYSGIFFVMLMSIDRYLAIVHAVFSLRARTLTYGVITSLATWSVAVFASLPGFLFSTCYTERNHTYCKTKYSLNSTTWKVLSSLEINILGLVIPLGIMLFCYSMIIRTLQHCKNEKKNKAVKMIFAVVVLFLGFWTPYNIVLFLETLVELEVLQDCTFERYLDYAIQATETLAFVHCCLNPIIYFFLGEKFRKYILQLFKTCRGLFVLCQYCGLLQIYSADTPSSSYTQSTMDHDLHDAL
Description: [35S]-GTPγS SPA Binding Assays for CCR4 Antagonist Activity
Antagonist potency was determined by a radioligand [35S]-GTPγS competition assay. Briefly, CCR4 expressing CHO membranes were homogenised by passing through a 23G needle. These membranes were then adhered to WGA-coated Leadseeker SPA beads in assay buffer (20 mM HEPES, 10 mM MgCl2, 100 mM NaCl, 0.05% BSA, 40 ug/ml Saponin and pH adjusted to 7.4 using KOH 5M) to generate a 3 μg/well final assay concentration (FAC) membrane and 250 μg/well FAC bead, solution.
The bead/membrane/[35S]-GTPγS/Agonist suspension was dispensed into white Greiner polypropylene 384-well plates (45 μl/well), containing 0.5 μl of compound. […] Plates were then read on a Viewlux instrument and luminescence was then plotted as a percentage of the maximum inhibitional response elicited by an IC100 of a standard antagonist.

CD4+ CCR4+ T cells = assay: Chemokine stimulated increases in cellular F-actin content; type: cell-based; conditions: Homo sapiens, T-cell, 0.5 h; PBMC from normal volunteers; antagonist 30 min at 37° C. before agonist for 15 sec; F-actin content by flow cytometry; read-out: pA2 (converted)
In short: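 Human PBMC from citrated volunteer blood, stained for CD4 and CCR4, were pre-incubated with antagonist or vehicle (0.1% DMSO) for 30 min at 37 °C, then stimulated with agonist for 15 s and formaldehyde-fixed. F-actin was stained with phalloidin and read by flow cytometry as CD4+CCR4+ MFI relative to CD4+CCR4− cells.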

Row | IC50 (CCR4) [nM] | SMILES | Kb (CD4+ CCR4+ T cells) [nM]
1 | 3.98 to 15.8 | COc1cccc2c1c(NS(=O)(=O)c1ccc(Cl)s1)nn2Cc1cccc(CNC(=O)CC(N)=O)c1 [Example 21, N-[(3-{[3-{[(5-chloro-2-thienyl)sulfonyl]amino}-4-(methyloxy)-1H-indazol-1-yl]methyl}phenyl)methyl]propanediamide] | ≤ 126
2 | 3.98 to 15.8 | COc1cccc2c1c(NS(=O)(=O)c1ccc(Cl)s1)nn2Cc1cccc(CNC(=O)[C@H]2CC(F)(F)CN2)c1 [Example 55, N-[(3-{[3-{[(5-Chloro-2-thienyl)sulfonyl]amino}-4-(methyloxy)-1H-indazol-1-yl]methyl}phenyl)methyl]-4,4-difluoro-D-prolinamide trifluoroacetate] | ≤ 126
3 | 3.98 to 15.8 | NC(=O)c1cccc(Cn2nc(NS(=O)(=O)c3ccc(Cl)s3)c3c(O)cccc32)c1 [Example 70, 3-[(3-{[(5-Chloro-2-thienyl)sulfonyl]amino}-4-hydroxy-1H-indazol-1-yl)methyl]benzamide] | ≤ 126
4 | 3.98 to 15.8 | CN[C@H](C)C(=O)NCc1cccc(Cn2nc(NS(=O)(=O)c3ccc(Cl)s3)c3c(OC)cccc32)c1 [Example 10, N^1-[(3-{[3-{[(5-chloro-2-thienyl)sulfonyl]amino}-4-(methyloxy)-1H-indazol-1-yl]methyl}phenyl)methyl]-N^2-methyl-D-alaninamide hydrochloride] | ≤ 126
